# Several values for one entry are separate records, joined by “and”; a condition that tells them apart may be missing. Equal values may be shown once. Read-outs that look alike come from different tables or passages of the source. Bridge positions count the residues as written; N and C are the ends. Square brackets hold non-standard residues; d marks the D form. Peptide text beside a SMILES is read from it. * marks the point of attachment. X1 = C=CCN1CC[C@]23c4c5ccc(O)c4O[C@H]2[C@H](N*)CC[C@@]3(O)[C@H]1C5
# Tests used:
# human KOR L309A = molecular target: T1, human KOR L309A (Homo sapiens, UniProt P41145, L309A); format: cell-based; conditions: HEK-293T, KOR L309A
# T1 construct: FLAG; expressed in transfected cells; host or cells: HEK293T
# male SWISS mice [1] = experiment: Formalin test (pain behavior, phase II); format: in vivo, mouse; conditions: for Formalin test (duration of pain behaviour): individual mice, listed as DNCP-ß-NalA (1)
# human KOR K227A [2] = molecular target: T2, human KOR K227A (Homo sapiens, UniProt P41145, K227A); format: cell-based; conditions: HEK-293T
# T2 construct: FLAG; expressed in transfected cells; host or cells: HEK293 / HEK293T, transient
# human KOR E297A [3] = molecular target: T3, human KOR E297A (Homo sapiens, UniProt P41145, E297A); format: cell-based; conditions: HEK-293T, KOR E297A
# T3 construct: FLAG; expressed in transfected cells; host or cells: HEK293T
# mouse KOR, Gαi2 = molecular target: T4, mouse KOR, Gαi2 (Mus musculus, UniProt P33534); experiment: TRUPATH BRET G protein assay, Gαi2; format: cell-based; conditions: TRUPATH
# T4 construct: expressed in transfected cells; host or cells: HEK293T (ATCC, CRL-3216), transient
# human KOR H304A = molecular target: T5, human KOR H304A (Homo sapiens, UniProt P41145, H304A); experiment: BRET β-arrestin-2 biosensor assay; format: cell-based
# T5 construct: FLAG; expressed in transfected cells; host or cells: HEK293T
# [4] = Serum stability assay (HPLC)
# Experimental: Blood was drawn from healthy volunteers devoid of any medication for 14 days from the antecubital vein using 21 G needles and collected in a serum clot activator tube (4 mL tubes, Greiner bio-one). […] Volunteers gave written informed consent before blood donation. […] Blood samples were collected into Vacuette® clot activator tubes (Greiner Bio-One, Austria). After clotting of about 2 h, the samples were centrifuged at 2200 × g for 15 min at 22 °C. The serum was removed and centrifuged again to remove lipids and cell particles at 16,000 × g at 4 °C for 20 min. […] The samples were incubated at 37 °C under continuous shaking at 300 rotations-per-minute. […] The samples were mixed well and incubated on ice for 10 min. For the protein precipitation, 30 µL of a 20% (w/v) trichloroacetic acid was added and incubated on ice for 15 min. The clear supernatant was harvested by centrifugation at 16,000 × g at 4 °C for 20 min and this sample was used for HPLC analysis. The chromatography HPLC system was a ThermoFisher Ultimate 3000 equipped with a pump, autosampler and single wavelength detector. […] The remaining peptide was calculated relative to the AUC at time point zero. The data points were fitted to a one-phase decay function and to determine the resulting half-life of the peptide in serum.
# 0.1% trifluoroacetic acid in water and acetonitrile/water trifluoroacetic acid 90/10/0.1% (v/v/v) with a
# linear separation gradient over 30 min.
# human KOR K227A [5] = molecular target: T2, human KOR K227A; experiment: BRET β-arrestin-2 biosensor assay; format: cell-based
# human KOR D138A = molecular target: T6, human KOR D138A (Homo sapiens, UniProt P41145, D138A); experiment: cAMP inhibition assay normalized to salvinorin A; format: cell-based
# T6 construct: expressed in transfected cells
# male SWISS mice [6] = experiment: CFA-induced inflammatory hyperalgesia, Hargreaves test; format: in vivo, mouse; conditions: for CFA-induced inflammatory hyperalgesia (paw withdrawal latency): individual mice, listed as DNCP-ß-NalA (1)
# Experimental: CFA-induced inflammatory hyperalgesia was induced in male SWISS mice (8–10 weeks old, 30–35 g body weight, n = 53 mice) by s.c. injection of 20 µL emulsified CFA (1 mg mL^−1) into the plantar surface of the right hindpaw under brief isoflurane anesthesia. Nociceptive testing was performed 72 h after inoculation with CFA. Hindpaws withdrawal latencies to thermal stimulation were measured using the Hargreaves test[84] with an analgesiometer (Ugo Basile S.R.L., Varese, Italy). Male mice were habituated in individual Plexiglas boxes positioned on a glass surface (Ugo Basile S.R.L., Varese, Italy) for three days prior to the inoculation with CFA. A movable infrared generator (30% intensity) located under the glass floor was focused onto the plantar surface of the hindpaw and switched on to heat. Onset of the radiant stimulus triggered a timer, which was stopped by subsequent paw movement. To prevent tissue damage, a cut-off time of 20 s was imposed. […] The paw withdrawal latencies to thermal stimulus was expressed in seconds.
# human KOR M142A = molecular target: T7, human KOR M142A (Homo sapiens, UniProt P41145, M142A); format: cell-based; conditions: HEK-293T
# T7 construct: FLAG; expressed in transfected cells; host or cells: HEK293 / HEK293T, transient
# human KOR F293A = molecular target: T8, human KOR F293A (Homo sapiens, UniProt P41145, F293A); format: cell-based; conditions: HEK-293T
# T8 construct: FLAG; expressed in transfected cells; host or cells: HEK293 / HEK293T, transient
# mouse KOR, Gαi3 = mouse KOR, Gαi3 (Mus musculus, UniProt P33534); experiment: TRUPATH BRET G protein assay, Gαi3; format: cell-based; conditions: read-out: Emax (%) Gαi3
# human KOR E297A [7] = molecular target: T3, human KOR E297A; experiment: BRET β-arrestin-2 biosensor assay; format: cell-based; conditions: KOR E297A
# mouse KOR, Gαgustducin = mouse KOR, Gαgustducin (Mus musculus, UniProt P33534); experiment: TRUPATH BRET G protein assay, Gαgustducin; format: cell-based; conditions: read-out: Emax (%) Gαgustducin
# human KOR WT = molecular target: T9, human KOR WT (Homo sapiens, UniProt P41145); format: cell-based; conditions: HEK-293T, KOR WT
# T9 construct: FLAG; expressed in transfected cells; host or cells: HEK293T, transient
# male SWISS mice [8] = experiment: Rotarod test (motor coordination/sedation); format: in vivo, mouse; conditions: DNCP-β-NalA(1) 3.8 and 7.6, U50,488 5.4 µmol kg^−1 s.c.
# Experimental: The rotarod test was used to evaluate coordinated locomotion and potential sedation induced by test drugs. […] Male SWISS mice (8–10 weeks old, 30–35 g body weight, n = 21 mice) were habituated to the equipment in two training sessions (30 min apart) one day before testing. On the experimental day, male mice were placed on the rotarod, and treadmill was accelerated from 4 to 40 rotations-per-minute over a period of 5 min. […] Decreased latencies to fall in the rotarod test indicate impaired motor performance. A 300 s cut-off time was used. The rotarod data are expressed as percentage (%) changes from the rotarod latencies obtained before (baseline) and after drug administration (test, T) were calculated as 100*(T/B).
# mouse KOR, Gαi1 = mouse KOR, Gαi1 (Mus musculus, UniProt P33534); experiment: TRUPATH BRET G protein assay, Gαi1; format: cell-based; conditions: read-out: Emax (%) Gαi1
# mouse KOR, GαoA = mouse KOR, GαoA (Mus musculus, UniProt P33534); experiment: TRUPATH BRET G protein assay, GαoA; format: cell-based; conditions: read-out: Emax (%) GαoA
# Chain of mouse KOR, GαoA (P33534 whole entry): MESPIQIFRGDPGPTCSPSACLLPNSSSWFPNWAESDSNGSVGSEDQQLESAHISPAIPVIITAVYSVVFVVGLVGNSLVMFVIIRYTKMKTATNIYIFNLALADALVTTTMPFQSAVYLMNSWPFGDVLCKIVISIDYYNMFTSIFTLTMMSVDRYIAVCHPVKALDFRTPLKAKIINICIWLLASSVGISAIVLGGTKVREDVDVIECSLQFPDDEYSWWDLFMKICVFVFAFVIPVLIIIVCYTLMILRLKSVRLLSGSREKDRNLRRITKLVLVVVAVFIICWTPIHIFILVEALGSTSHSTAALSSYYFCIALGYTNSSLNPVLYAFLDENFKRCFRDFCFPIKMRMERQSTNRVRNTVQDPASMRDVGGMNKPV
# Chain of mouse KOR, GαoA (P09471 2-354 partner): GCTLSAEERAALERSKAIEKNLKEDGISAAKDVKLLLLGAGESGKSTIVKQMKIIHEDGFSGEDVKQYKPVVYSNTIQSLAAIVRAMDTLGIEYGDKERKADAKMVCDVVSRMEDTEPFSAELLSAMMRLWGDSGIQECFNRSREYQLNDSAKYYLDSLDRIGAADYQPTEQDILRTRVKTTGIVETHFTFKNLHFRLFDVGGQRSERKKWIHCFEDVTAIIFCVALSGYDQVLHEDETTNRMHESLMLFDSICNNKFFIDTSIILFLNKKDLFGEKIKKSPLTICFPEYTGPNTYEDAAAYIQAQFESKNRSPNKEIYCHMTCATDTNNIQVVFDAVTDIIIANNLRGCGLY
# T2 sequence (P41145 whole entry K227A): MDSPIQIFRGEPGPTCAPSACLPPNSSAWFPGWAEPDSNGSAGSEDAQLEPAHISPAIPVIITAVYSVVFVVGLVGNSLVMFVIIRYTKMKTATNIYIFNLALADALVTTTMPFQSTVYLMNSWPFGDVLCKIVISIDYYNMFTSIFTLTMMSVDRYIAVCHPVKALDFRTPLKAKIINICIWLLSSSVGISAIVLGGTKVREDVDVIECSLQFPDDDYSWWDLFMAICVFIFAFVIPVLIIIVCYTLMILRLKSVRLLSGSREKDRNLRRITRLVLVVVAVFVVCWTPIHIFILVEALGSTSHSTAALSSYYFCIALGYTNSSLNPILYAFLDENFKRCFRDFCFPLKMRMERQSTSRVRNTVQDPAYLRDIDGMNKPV
# T3 sequence (P41145 whole entry E297A): as the sequence (P41145 whole entry K227A) above, with A227K, E297A counted along it
# T6 sequence (P41145 whole entry D138A): as the sequence (P41145 whole entry K227A) above, with D138A, A227K counted along it
# Chain of mouse KOR, Gαgustducin (P33534 whole entry): as the sequence (P33534 whole entry) above
# Chain of mouse KOR, Gαgustducin (A8MTJ3 2-354 partner): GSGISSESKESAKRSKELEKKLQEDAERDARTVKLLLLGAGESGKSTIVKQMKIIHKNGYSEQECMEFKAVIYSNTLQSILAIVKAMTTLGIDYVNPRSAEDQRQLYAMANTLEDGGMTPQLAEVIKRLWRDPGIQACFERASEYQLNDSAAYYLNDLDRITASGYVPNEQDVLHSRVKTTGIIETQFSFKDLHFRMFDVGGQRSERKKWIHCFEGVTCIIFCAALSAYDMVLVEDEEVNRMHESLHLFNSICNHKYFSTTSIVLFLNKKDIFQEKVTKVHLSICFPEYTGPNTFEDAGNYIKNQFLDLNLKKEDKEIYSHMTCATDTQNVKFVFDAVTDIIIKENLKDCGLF
# T4 sequence (P33534 whole entry): as the sequence (P33534 whole entry) above
# Chain of mouse KOR, Gαi3 (P33534 whole entry): as above
# Chain of mouse KOR, Gαi3 (P08754 2-354 partner): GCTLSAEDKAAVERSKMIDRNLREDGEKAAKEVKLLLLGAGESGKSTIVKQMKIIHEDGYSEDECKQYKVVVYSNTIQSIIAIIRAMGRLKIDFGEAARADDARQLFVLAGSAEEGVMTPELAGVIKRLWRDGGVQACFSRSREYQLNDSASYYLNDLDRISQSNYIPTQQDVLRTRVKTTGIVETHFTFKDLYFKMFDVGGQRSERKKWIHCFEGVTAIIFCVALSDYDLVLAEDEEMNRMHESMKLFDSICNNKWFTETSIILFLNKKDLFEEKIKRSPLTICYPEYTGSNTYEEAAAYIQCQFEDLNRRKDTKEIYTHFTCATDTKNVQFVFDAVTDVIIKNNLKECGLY
# Chain of mouse KOR, Gαi1 (P33534 whole entry): as the sequence (P33534 whole entry) above
# Chain of mouse KOR, Gαi1 (P63096 2-354 partner): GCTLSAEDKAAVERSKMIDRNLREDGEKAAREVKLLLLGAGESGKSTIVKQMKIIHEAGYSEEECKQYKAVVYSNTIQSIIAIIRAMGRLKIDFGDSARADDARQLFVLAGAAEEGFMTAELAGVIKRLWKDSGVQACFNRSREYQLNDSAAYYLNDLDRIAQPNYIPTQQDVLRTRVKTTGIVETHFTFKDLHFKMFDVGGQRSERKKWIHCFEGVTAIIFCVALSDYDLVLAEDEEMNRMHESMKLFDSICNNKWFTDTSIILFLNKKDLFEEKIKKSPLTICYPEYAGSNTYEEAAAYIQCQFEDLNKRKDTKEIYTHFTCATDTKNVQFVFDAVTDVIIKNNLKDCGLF
# T7 sequence (P41145 whole entry M142A): as the sequence (P41145 whole entry K227A) above, with M142A, A227K counted along it
# T5 sequence (P41145 whole entry H304A): as the sequence (P41145 whole entry K227A) above, with A227K, H304A counted along it
# T8 sequence (P41145 whole entry F293A): as the sequence (P41145 whole entry K227A) above, with A227K, F293A counted along it
# T9 sequence (P41145 whole entry): as the sequence (P41145 whole entry K227A) above, with A227K counted along it
# T1 sequence (P41145 whole entry L309A): as the sequence (P41145 whole entry K227A) above, with A227K, L309A counted along it
compound,measurement,setting,value
C=CCN1CC[C@]23c4c5ccc(O)c4O[C@H]2[C@H](NC(=O)[C@@H](Cc2ccccc2)NC(=O)[C@@H](NC(=O)[C@@H]2CSCC(=O)N[C@@H](Cc4ccc(O)cc4)C(=O)N[C@@H](C)C(=O)N[C@H](Cc4ccc(O)cc4)C(=O)N[C@@H]([C@@H](C)O)C(=O)N[C@@H]([C@@H](C)O)C(=O)N2)[C@@H](C)O)CC[C@@]3(O)[C@H]1C5 [DNCP-β-NalA(1)] ({CH2CO}-YA[dY]TTCT[dF]-X1; thioether N-6),Emax,human KOR L309A,95.98 ± 0.44%
same,Formalin test (duration of pain behaviour),male SWISS mice [1]; 0.8 µmol/kg,234 s and 278 s and 189 s and 251 s and 382 s and 247 s
same,Formalin test (duration of pain behaviour),male SWISS mice [1]; 1.9 µmol/kg,208 s and 50 s and 189 s and 169 s and 167 s and 252 s
same,antagonism of antinociception by nor-BNI,male SWISS mice [1]; nor-BNI 13.6 µmol kg^−1 s.c. pretreatment,significantly reversed the antinociceptive response
same,antinociceptive ED50,"male SWISS mice [1]; s.c., male mice",1.89 µmol/kg
same,effect on pain behavior,"male SWISS mice [1]; s.c., male mice",dose-dependent reduction in the pain behavior
same,Emax,human KOR K227A [2],47.9 ± 1.19%
same,Emax,human KOR E297A [3],96.28 ± 0.53%
same,Emax,"mouse KOR, Gαi2",62 ± 6%
same,Emax,human KOR H304A,34.5 ± 1.18%
same,"serum stability, amount remaining, Figure S15",[4]; Time (min) 0,100
same,stable in serum,[4]; authors' response in peer review file,at least 50 h
same,"remaining at 5 min, 50 µM","[4]; human, human serum, serum stability, amount remaining, Figure S15, Time (min) 5",94%
same,"remaining at 10 min, 50 µM","[4]; human, human serum, serum stability, amount remaining, Figure S15, Time (min) 10",94%
same,"remaining at 20 min, 50 µM","[4]; human, human serum, serum stability, amount remaining, Figure S15, Time (min) 20",99%
same,"remaining at 40 min, 50 µM","[4]; human, human serum, serum stability, amount remaining, Figure S15, Time (min) 40",96%
same,"remaining at 1 h, 50 µM","[4]; human, human serum, serum stability, amount remaining, Figure S15, Time (min) 60",106%
same,"remaining at 2 h, 50 µM","[4]; human, human serum, serum stability, amount remaining, Figure S15, Time (min) 120",98%
same,"remaining at 4 h, 50 µM","[4]; human, human serum, serum stability, amount remaining, Figure S15, Time (min) 240",101%
same,"remaining at 6 h, 50 µM","[4]; human, human serum, serum stability, amount remaining, Figure S15, Time (min) 360",99%
same,"remaining at 24 h, 50 µM","[4]; human, human serum, serum stability, amount remaining, Figure S15, Time (min) 1440",98%
same,"remaining at 48 h, 50 µM","[4]; human, human serum, serum stability, amount remaining, Figure S15, Time (min) 2880",96%
same,"remaining at 48 h, 50 µM","[4]; human, human serum, serum stability, remaining intact, after 48 h, 37 °C",> 95%
same,Emax,human KOR K227A [5],16.9 ± 2.26%
same,reduction of cAMP inhibition potency,"human KOR D138A; D138A vs WT, authors' response",17 fold
same,Emax,"human KOR D138A; KOR D138A, normalized to salvinorin A",105 ± 2.4%
same,CFA-induced inflammatory hyperalgesia (paw withdrawal latency),"male SWISS mice [6]; 0.4 µmol/kg, time 0.5 h",4.5 s and 3.8 s and 3.4 s and 4.3 s and 3.3 s and 4.6 s
same,CFA-induced inflammatory hyperalgesia (paw withdrawal latency),"male SWISS mice [6]; 0.4 µmol/kg, time 1 h",4.1 s and 5.3 s and 2.8 s and 3.2 s and 3 s and 2.4 s
same,CFA-induced inflammatory hyperalgesia (paw withdrawal latency),"male SWISS mice [6]; 0.4 µmol/kg, time 2 h",5.2 seconds and 3.9 seconds and 3.8 seconds and 3.4 seconds (2×) and 3.2 seconds
same,CFA-induced inflammatory hyperalgesia (paw withdrawal latency),"male SWISS mice [6]; 0.4 µmol/kg, time 3 h",4.6 seconds and 3.9 seconds and 4.1 seconds and 3.4 seconds (2×) and 2.9 seconds
same,CFA-induced inflammatory hyperalgesia (paw withdrawal latency),"male SWISS mice [6]; 0.4 µmol/kg, time 4 h",4 s and 3.6 s and 3.4 s and 3 s and 3.2 s and 2.7 s
same,CFA-induced inflammatory hyperalgesia (paw withdrawal latency),"male SWISS mice [6]; 0.8 µmol/kg, time 0.5 h",3.8 s and 4.7 s and 5.2 s and 5.9 s and 4 s and 4.4 s
same,CFA-induced inflammatory hyperalgesia (paw withdrawal latency),"male SWISS mice [6]; 0.8 µmol/kg, time 1 h",3.4 seconds and 3.5 seconds (2×) and 4.2 seconds and 3.8 seconds and 3.6 seconds
same,CFA-induced inflammatory hyperalgesia (paw withdrawal latency),"male SWISS mice [6]; 0.8 µmol/kg, time 2 h",2.7 seconds and 3.7 seconds and 3.9 seconds (2×) and 3.4 seconds and 4 seconds
same,CFA-induced inflammatory hyperalgesia (paw withdrawal latency),"male SWISS mice [6]; 0.8 µmol/kg, time 3 h",3.5 seconds (3×) and 3.1 seconds (2×) and 2.9 seconds
same,CFA-induced inflammatory hyperalgesia (paw withdrawal latency),"male SWISS mice [6]; 0.8 µmol/kg, time 4 h",2.6 seconds and 3.4 seconds and 3 seconds and 3.2 seconds and 3.1 seconds (2×)
same,CFA-induced inflammatory hyperalgesia (paw withdrawal latency),"male SWISS mice [6]; 0.8 µmol/kg, time BL",10.2 s and 11.3 s and 9.9 s and 10.1 s and 10.3 s
same,CFA-induced inflammatory hyperalgesia (paw withdrawal latency),"male SWISS mice [6]; 1.9 µmol/kg, time 0.5 h",4.2 s and 5.6 s and 7.4 s and 7.3 s and 7.2 s and 5.3 s
same,CFA-induced inflammatory hyperalgesia (paw withdrawal latency),"male SWISS mice [6]; 1.9 µmol/kg, time 1 h",3.9 seconds and 4.5 seconds (2×) and 6.6 seconds and 5 seconds and 3.5 seconds
same,CFA-induced inflammatory hyperalgesia (paw withdrawal latency),"male SWISS mice [6]; 1.9 µmol/kg, time 2 h",2.9 s and 4.1 s and 4.4 s and 3.4 s and 3.5 s and 3.8 s
same,CFA-induced inflammatory hyperalgesia (paw withdrawal latency),"male SWISS mice [6]; 1.9 µmol/kg, time 3 h",3.5 seconds (2×) and 3.8 seconds and 4.4 seconds and 3.3 seconds and 2.9 seconds
same,CFA-induced inflammatory hyperalgesia (paw withdrawal latency),"male SWISS mice [6]; 1.9 µmol/kg, time 4 h",2.5 seconds and 2.6 seconds and 2.7 seconds (2×) and 2.8 seconds and 3.5 seconds
same,CFA-induced inflammatory hyperalgesia (paw withdrawal latency),"male SWISS mice [6]; 1.9 µmol/kg, time BL",10.6 s and 9.8 s and 10 s and 10.4 s and 10.3 s
same,return of thermal nociceptive thresholds to basal values,male SWISS mice [6]; after drug administration,2 h
same,time of peak effect,male SWISS mice [6]; s.c.,15 min
same,effect on thermal sensitivity / paw withdrawal latencies,"male SWISS mice [6]; s.c., male mice",significantly reduced thermal sensitivity
same,Emax,human KOR M142A,69.4 ± 1.97%
same,Emax,human KOR F293A,85.55 ± 0.78%
same,Emax,"mouse KOR, Gαi3",77 ± 3%
same,Emax,human KOR E297A [7],64.6 ± 1.35%
same,Emax,"mouse KOR, Gαgustducin",101 ± 5%
same,Emax,human KOR WT,85.9 ± 1.2%
same,rotarod performance / motor behavior,male SWISS mice [8],no changes in the motor behavior
same,Emax,"mouse KOR, Gαi1",81%
same,Emax,"mouse KOR, GαoA",56 ± 7%
